Measured values reported in patent publication US5770595A, “Oxime substituted therapeutic compounds” (Cell Therapeutics, Inc., priority 1994, dated 1998).

Key:
murine thymocyte = test: thymocyte proliferation stimulated by ConA and IL-2; format: cell-based, murine (female Balb/C mice); settings: IL-2 20 ng/ml; drug two hours prior; FIG. 4
Procedure: A thymocyte costimulator assay is conducted to evaluate the inventive compounds to inhibit activation and proliferation of thymocytes caused by stimulation with Con A and interleukin-1 (IL-1), or […]. Thymuses are obtained from mice (e.g., female Balb/C mice) and the thymuses are removed and dissociated into culture media (e.g., RPMI 1640 without serum supplementation). The dissociated thymus tissue and cell suspension is transferred to centrifuge tubes and allowed to settle, washed with HBSS and resuspended in serum-supplemented culture media (e.g., RPMI 1640 with 10% fetal calf serum). Any contaminating red cells are lysed, and viable cells are resuspended and counted. Thymocytes are plated (e.g., 96-well plates at a density of 2×10^5 cells/well) and a stimulating agent, such as Con A, IL-1 (e.g., IL-1α) or IL-2 is added to the well. The cells are incubated for 4 days at 37° C. On the fourth day, the cells are pulsed with tritiated thymidine and cell proliferation determined. […]
1522 on inhibition of thymocyte proliferation stimulated by ConA and interleukin-2 (IL-2) (20 ng/ml). Compound no. […]
Thymuses, obtained from normal, female Balb/C mice, were dissociated and plated into 96-well plates at a density of 2×10^5 cells/well. […] The amount of tritiated thymidine dye incorporated by the harvested cells was determined in a liquid scintillation counter. […]

[1] = test system: murine peritoneal macrophages; test: IL-1α release from LPS-stimulated murine peritoneal macrophages; format: cell-based; settings: 0.25 mM, LPS 10 μg/ml
Procedure: This example illustrates the ability of inventive compound no. 1521 to inhibit IL-1α release from murine peritoneal macrophages when stimulated with LPS. This assay is a model for septic shock. Macrophages (10^5) were treated with LPS at 10 μg/ml in RPMI media containing 10% fetal calf serum. Supernatants were assayed for IL-1α by an ELISA technique at various times following LPS stimulation. The cells were treated one hour prior to LPS stimulation with 0.25 mM 1521.

P388D1 cells = test: IL-1α release from LPS-stimulated P388D1 cells; format: cell-based, murine; settings: 0.25 mM, LPS 10 μg/ml
Procedure: This example illustrates the ability of inventive compound no. 1521 to inhibit IL-1α release from P388D1 cells when stimulated with LPS. This assay is a model for septic shock. P388D1 cells (10^5) were treated with LPS at 10 μg/ml in RPMI media containing 10% fetal calf serum. Supernatants were assayed for IL-1α by an ELISA technique at various times following LPS stimulation. The cells were treated one hour prior to LPS stimulation with 0.25 mM of compound no. 1521.

| Structure (SMILES) | inhibition of thymocyte proliferation, ConA + IL-2 (murine thymocyte) | inhibition of IL-1α release [1] | inhibition of IL-1α release (P388D1 cells) |
| --- | --- | --- | --- |
| CON=C(C)CCCCn1c(=O)c2c(ncn2C)n(C)c1=O [Compound no. 1522] | inhibited thymocyte proliferation at the higher doses tested |  |  |
| CC(CCCCn1c(=O)c2c(ncn2C)n(C)c1=O)=NO [Compound no. 1521] |  | inhibited IL-1α release | inhibited IL-1α release |
